Here are results for two molecules from patent US20080085889A1, “Amidomethyl-Substituted 1-(Carboxyalkyl) Cyclopentyl-Carbonylamino-Benzazepine-N-Acetic Acid Compounds, Process and Intermediate Products for Their Preparation and Pharmaceutical Compositions Containing Them” (SOLVAY PHARMACEUTICALS GmbH, priority 2003, published 2008).

pIC50: −log10 of the molar value. Read-outs that look alike come from different tables or passages of the source.

Assay [1] concerns maximal SAP response to Big-ET. The experiment in a line: In vivo inhibition of maximal SAP response to Big-ET in anesthetized rats after oral administration. Set-up: species or system Rats (Sprague-Dawley). The following applies: oral by gavage, 100 μmol/kg, 1 h before Big-ET challenge; mean ± standard error; negative = inhibition. Here is the method: Rats (Sprague-Dawley, CRLD=Charles River) were anaesthetised with 1 ml/kg Rompun/Ketavet 1:1. A pressure transducer (Statham) was inserted into the carotid artery to measure blood pressure.
For oral testing, the substances (or vehicle) were given by gavage at doses of 100 μmol/kg each, 1 h before the Big-ET challenge, and blood pressure and heart rate were monitored as described above.
The inhibition of maximal SAP response to Big-ET in anesthetized rats following oral administration of the test substances of Formula I is set forth in the following Table 3c: […]
Data given in table 3c as negative values indicate an inhibitory effect. Values are means from 3-6 independent series of experiments ±standard error.

In assay [2] the test system is NEP (prepared from pig kidney cortex). The experiment in a line: Enzymatic breakdown of CNP and VIP by NEP and its inhibition, in vitro, HPLC. The format is biochemical. Here is the method:
The inhibition of the enzymatic breakdown of CNP and VIP by the compounds used according to the invention was measured in an enzymatic in vitro assay according to the following protocol:
All test compounds were dissolved in DMSO at 10 mM and further diluted with assay buffer.
80 μl of assay buffer, 10 μl of enzyme working solution (NEP or hSEP) and 10 μl of peptide stock solution (VIP or CNP) were mixed in an Eppendorf vial and incubated for 120 min. at 37° C. The enzymatic reaction was subsequently terminated by heating to 95° C. for 5 min. After centrifugation (Heraeus Biofuge B, 3 min) the supernatant was subjected to HPLC.
70 μl of assay buffer, 10 μl of enzyme working solution (NEP or hSEP) and 10 μl of a test compound solution were mixed in an Eppendorf vial and preincubated at 37° C. for 15 minutes. Then, 10 μl of peptide stock solution (VIP or CNP) was added and the reaction mixture was incubated at 37° C. for 60 min. to allow enzymatic hydrolysis. […]
All peptides were detected by absorbance at 214 nm (UV spectroscopy). The percentage (=%) of hydrolysis was calculated on the basis of the peak area of the undegraded peptide for an enzyme containing sample Y in correlation to a sample containing the same concentration of peptide without enzyme (blank) by the following equation: % hydrolysis=100*(blank−Y) […]

Consider `CN(C)CCCN(C)C(=O)CC(CC1(C(=O)NC2CCc3ccccc3N(CC(=O)O)C2=O)CCCC1)C(=O)O` (stereo not drawn) [Example 64, 2-[(1-{[1-(carboxymethyl)-2-oxo-2,3,4,5-tetrahydro-1H-1-benzazepin-3-yl]carbamoyl}cyclopentyl)methyl]-4-{[3-(dimethylamino)propyl](methyl)amino}-4-oxobutanoic acid], for which the “% substance-related inhibition of the maximum Big-ET effect on SAP vs. control” value in assay [1] was −53 ± 5%.

On to “{(3S)-3-[({1-[(2″rel1″)-2-ethoxycarbonyl)-4-(isopropylamino)-4-oxobutyl]cyclopentyl}-carbonyl)amino]-2-oxo-2,3,4,5-tetrahydro-1H-1-benzazepin-1-yl}acetic acid [Example 4]”, for which the pIC50 was 8.00 in assay [2] (substrate CNP (32-53), read-out: inhibition of breakdown of CNP by NEP, IC50) and 8.51 in assay [2] (substrate VIP, read-out: inhibition of breakdown of VIP by NEP, IC50).

In general, pIC50 refers to the negative decadic logarithm of the IC50, by convention in mol/L.
